Assay results as given in patent US20220370416A1, “COMPOUNDS AND METHODS FOR TARGETED DEGRADATION OF KRAS” (Arvinas Operations, Inc., priority 2020, published 2022).

Assays:
[1] = biological target: T1, HiBit-KRAS^G12C (Homo sapiens, UniProt P01116, G12C); test: HiBit degradation assay in SW1573 HiBit-KRas^G12C cells; assay type: cell-based; set-up: expressed in transfected cells; host or cells: SW1573 (clone E6), modified pcDNA3.1 vector, TK promoter; settings: 24 hours
How it was run: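 HiBit-KRAS G12C degradation was measured after a 24 h compound exposure (titrated 10 μM–20 nM) in engineered SW1573 cells. Lytic HiBit luminescence, expressed relative to DMSO controls, yielded DC50 and Dmax from 4-parameter fits. Concentrations causing ≥50% loss in alamar blue viability were omitted as cytotoxic.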

[2] = biological target: T1, HiBit-KRAS^G12C; test: HiBit degradation assay in MiaPaCa-2 HiBit-KRas^G12C cells; assay type: cell-based; settings: 24 hours
How it was run: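 DC50 and Dmax come from 4-parameter fits of DMSO-normalized HiBit luminescence after 24 hours' exposure at 37° C to 10 μM–20 nM compound in 0.1% or 0.5% DMSO. Cells: MiaPaCa-2 carrying one endogenously HiBit-tagged KRAS^G12C allele; concentrations causing ≥50% […] viability loss (alamar blue) excluded.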

[3] = SW1573, SW1573 HiBit-KRas^G12C, 0.5% DMSO, read-out: KRas^G12C-HiBiT (SW1573; 0.5% DMSO) Dmax**
[4] = read-out: KRas^G12C-HiBiT (SW1573; 0.5% DMSO) IC50***, SW1573 HiBit-KRas^G12C, 0.5% DMSO
[5] = MIA PaCa-2, MiaPaCa-2 HiBit-KRas^G12C cells, 0.5% DMSO, maximum degradation, read-out: KRas^G12C-HiBiT (MiaPaCa; 0.5% DMSO) DMax
[6] = read-out: KRas^G12C-HiBiT (MiaPaCa; 0.5% DMSO) IC50, MiaPaCa-2 HiBit-KRas^G12C cells, 0.5% DMSO
[7] = SW1573, SW1573 HiBit-KRas^G12C, 0.1% DMSO, read-out: KRas^G12C-HiBit (SW1573; 0.1% DMSO) Dmax**
[8] = SW1573 HiBit-KRas^G12C, 0.1% DMSO, read-out: KRas^G12C-HIBit (SW1573; 0.1% DMSO) DC50*
[9] = MIA PaCa-2, MiaPaCa-2 HiBit-KRas^G12C cells, 0.1% DMSO, maximum degradation, read-out: KRas^G12C-HiBiT (MiaPaCa; 0.1% DMSO) DMax

T1 sequence (P01116 1-186 isoform P01116-2 G12C limits assumed): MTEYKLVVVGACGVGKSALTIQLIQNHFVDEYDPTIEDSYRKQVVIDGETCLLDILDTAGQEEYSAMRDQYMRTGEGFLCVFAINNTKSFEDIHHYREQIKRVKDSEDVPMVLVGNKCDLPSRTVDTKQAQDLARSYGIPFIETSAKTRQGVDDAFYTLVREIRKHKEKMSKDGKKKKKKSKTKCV

SMILES | Dmax [1, 3] | DC50 [1, 4] | Dmax [2, 5] | DC50 [2, 6] | DC50 [1, 8] | further results
C=CC(=O)N1CCN(c2nc(OCCN3CCC(COCC(=O)N[C@H](C(=O)N4C[C@H](O)C[C@H]4C(=O)N[C@@H](C)c4ccc(-c5ccnn5C)cc4)C(C)(C)C)CC3)nc3c(F)c(-c4cc(O)cc5ccccc45)c(Cl)cc23)C[C@@H]1CC#N (atropisomer, axis not shown) [Compound 136, (2S,4R)-1-[(2S)-2-[2-({1-[2-({6-chloro-4-[(3S)-3-(cyanomethyl)-4-(prop-2-enoyl)piperazin-1-yl]-8-fluoro-7-(3-hydroxynaphthalen-1-yl)quinazolin-2-yl}oxy)ethyl]piperidin-4-yl}methoxy)acetamido]-3,3-dimethylbutanoyl]-4-hydroxy-N-[(1S)-1-[4-(1-methyl-1H-pyrazol-5-yl)phenyl]ethyl]pyrrolidine-2-carboxamide] | > 70% | 100 to 1000 nM | > 70% | 100 to 1000 nM |  | 
C=CC(=O)N1CCN(c2nc(OCCN3CCC(COc4cc([C@H](C(=O)N5C[C@H](O)C[C@H]5C(=O)N[C@@H](C)c5ccc(-c6scnc6C)cc5)C(C)C)on4)CC3)nc3c(F)c(-c4cc(O)cc5ccccc45)c(Cl)cc23)C[C@@H]1CC#N (atropisomer, axis not shown) [Compound 104, (2S,4R)-1-[(2R)-2-[3-({1-[2-({6-chloro-4-[(3S)-3-(cyanomethyl)-4-(prop-2-enoyl)piperazin-1-yl]-8-fluoro-7-(3-hydroxynaphthalen-1-yl)quinazolin-2-yl}oxy)ethyl]piperidin-4-yl}methoxy)-1,2-oxazol-5-yl]-3-methylbutanoyl]-4-hydroxy-N-[(1S)-1-[4-(4-methyl-1,3-thiazol-5-yl)phenyl]ethyl]pyrrolidine-2-carboxamide] |  | 100 to 1000 nM |  | 100 to 1000 nM |  | KRas^G12C-HiBiT (SW1573; 0.5% DMSO) Dmax** ([1]; SW1573 HiBit-KRas^G12C, 0.5% DMSO): C (C ≤ 35); KRas^G12C-HiBiT (MiaPaCa; 0.5% DMSO) DMax ([2]; MiaPaCa-2 HiBit-KRas^G12C cells, 0.5% DMSO, maximum degradation): C (C ≤ 35)
C=CC(=O)N1CCN(c2nc(O[C@H](C)CN3CCC(COCC(=O)N[C@H](C(=O)N4C[C@H](O)C[C@H]4C(=O)N[C@@H](C)c4ccc(-c5scnc5C)cc4)C(C)(C)C)CC3)nc3c2CCN(c2cc(O)cc4ccccc24)C3)C[C@@H]1CC#N [Compound 29, (2S,4R)-1-[(2S)-2-[2-({1-[(2R)-2-({4-[(3S)-3-(cyanomethyl)-4-(prop-2-enoyl)piperazin-1-yl]-7-(3-hydroxynaphthalen-1-yl)-5H,6H,7H,8H-pyrido[3,4-d]pyrimidin-2-yl}oxy)propyl]piperidin-4-yl}methoxy)acetamido]-3,3-dimethylbutanoyl]-4-hydroxy-N-[(1S)-1-[4-(4-methyl-1,3-thiazol-5-yl)phenyl]ethyl]pyrrolidine-2-carboxamide] | 35 to 70% |  | 35 to 70% |  | > 1000 nM | Dmax [1, 7]: 35 to 70%; Dmax [2, 9]: 35 to 70%
C=CC(=O)N1CCN(c2nc(OCCN3CCC(CN(C)CC(=O)N[C@H](C(=O)N4C[C@H](O)C[C@H]4C(=O)N[C@@H](C)c4ccc(-c5scnc5C)cc4)C(C)(C)C)CC3)nc3c(F)c(-c4cc(O)cc5ccccc45)c(Cl)cc23)C[C@@H]1CC#N [Compound 148, (2S,4R)-1-[(2S)-2-{2-[({1-[2-({6-chloro-4-[(3S)-3-(cyanomethyl)-4-(prop-2-enoyl)piperazin-1-yl]-8-fluoro-7-(3-hydroxynaphthalen-1-yl)quinazolin-2-yl}oxy)ethyl]piperidin-4-yl}methyl)(methyl)amino]acetamido}-3,3-dimethylbutanoyl]-4-hydroxy-N-[(1S)-1-[4-(4-methyl-1,3-thiazol-5-yl)phenyl]ethyl]pyrrolidine-2-carboxamide] |  | 100 to 1000 nM |  | 100 to 1000 nM |  | Dmax ([1]; SW1573, read-out: KRas^G12C-HiBiT (SW1573; 0.5% DMSO) Dmax**, SW1573 HiBit-KRas^G12C, 0.5% DMSO): 35 to 70%; Dmax ([2]; MIA PaCa-2, read-out: KRas^G12C-HiBiT (MiaPaCa; 0.5% DMSO) DMax, MiaPaCa-2 HiBit-KRas^G12C cells, 0.5% DMSO, maximum degradation): 35 to 70%
C=CC(=O)N1CCN(c2nc(OCCN3CCC(COc4cc([C@H](C(=O)N5C[C@H](O)C[C@H]5C(=O)N[C@@H](C)c5ccc(C#N)cc5)C(C)C)on4)CC3)nc3c(F)c(-c4cc(O)cc5ccccc45)c(Cl)cc23)C[C@@H]1CC#N [Compound 160, (2S,4R)-1-[(2R)-2-[3-({1-[2-({6-chloro-4-[(3S)-3-(cyanomethyl)-4-(prop-2-enoyl)piperazin-1-yl]-8-fluoro-7-(3-hydroxynaphthalen-1-yl)quinazolin-2-yl}oxy)ethyl]piperidin-4-yl}methoxy)-1,2-oxazol-5-yl]-3-methylbutanoyl]-N-[(1S)-1-(4-cyanophenyl)ethyl]-4-hydroxypyrrolidine-2-carboxamide] |  | > 1000 nM | < 35% | 100 to 1000 nM |  | 
C=CC(=O)N1CCN(c2nc(OCCN3CCC(C)(COCC(=O)N[C@H](C(=O)N4C[C@H](O)C[C@H]4C(=O)N[C@@H](C)c4ccc(-c5scnc5C)cc4)C(C)(C)C)CC3)nc3c(F)c(-c4cc(O)cc5ccccc45)c(Cl)cc23)C[C@@H]1CC#N [Compound 149, (2S,4R)-1-[(2S)-2-[2-({1-[2-({6-chloro-4-[(3S)-3-(cyanomethyl)-4-(prop-2-enoyl)piperazin-1-yl]-8-fluoro-7-(3-hydroxynaphthalen-1-yl)quinazolin-2-yl}oxy)ethyl]-4-methylpiperidin-4-yl}methoxy)acetamido]-3,3-dimethylbutanoyl]-4-hydroxy-N-[(1S)-1-[4-(4-methyl-1,3-thiazol-5-yl)phenyl]ethyl]pyrrolidine-2-carboxamide] | > 70% | 100 to 1000 nM | > 70% | 100 to 1000 nM |  | 
C=CC(=O)N1CCN(c2nc(OCCN3CCC(OCCOc4cc([C@@H](C(=O)N5C[C@@H](O)C[C@H]5C(=O)N[C@@H](C)c5ccc(-c6scnc6C)cc5)C(C)C)on4)CC3)nc3c(F)c(-c4cc(O)cc5ccccc45)c(Cl)cc23)C[C@@H]1CC#N [Compound 5, (2S,4S)-1-[(2S)-2-{3-[2-({1-[2-({6-chloro-4-[(3S)-3-(cyanomethyl)-4-(prop-2-enoyl)piperazin-1-yl]-8-fluoro-7-(3-hydroxynaphthalen-1-yl)quinazolin-2-yl}oxy)ethyl]piperidin-4-yl}oxy)ethoxy]-1,2-oxazol-5-yl}-3-methylbutanoyl]-4-hydroxy-N-[(1S)-1-[4-(4-methyl-1,3-thiazol-5-yl)phenyl]ethyl]pyrrolidine-2-carboxamide] |  |  |  |  | > 1000 nM | Dmax ([2]; MIA PaCa-2, read-out: KRas^G12C-HiBiT (MiaPaCa; 0.1% DMSO) DMax, MiaPaCa-2 HiBit-KRas^G12C cells, 0.1% DMSO, maximum degradation): < 35%; DC50 ([2]; read-out: KRas^G12C-HiBiT (MiaPaCa; 0.1% DMSO) IC50, MiaPaCa-2 HiBit-KRas^G12C cells, 0.1% DMSO): 100 to 1000 nM
C=C(F)C(=O)N1CCN(c2nc(OCCN3CCC(F)(COc4cc([C@H](C(=O)N5C[C@H](O)C[C@H]5C(=O)N[C@@H](C)c5ccc(-c6ccnn6C)cc5)C(C)C)on4)CC3)nc3c(F)c(-c4cc(O)cc5ccccc45)c(Cl)cc23)C[C@@H]1CC#N (atropisomer, axis not shown) [Compound 117, (2S,4R)-1-[(2R)-2-[3-({1-[2-({6-chloro-4-[(3S)-3-(cyanomethyl)-4-(2-fluoroprop-2-enoyl)piperazin-1-yl]-8-fluoro-7-(3-hydroxynaphthalen-1-yl)quinazolin-2-yl}oxy)ethyl]-4-fluoropiperidin-4-yl}methoxy)-1,2-oxazol-5-yl]-3-methylbutanoyl]-4-hydroxy-N-[(1S)-1-[4-(1-methyl-1H-pyrazol-5-yl)phenyl]ethyl]pyrrolidine-2-carboxamide] | 35 to 70% | < 100 nM | > 70% | < 100 nM |  | 
C=CC(=O)N1CCN(c2nc(OCCN3CCC(OCCOCC(=O)N[C@H](C(=O)N4C[C@H](O)C[C@H]4C(=O)N[C@@H](C)c4ccc(-c5scnc5C)cc4)C(C)(C)C)CC3)nc3c(F)c(-c4cc(O)cc5ccccc45)c(Cl)cc23)C[C@@H]1CC#N [Compound 32, (2S,4R)-1-[(2S)-2-{2-[2-({1-[2-({6-chloro-4-[(3S)-3-(cyanomethyl)-4-(prop-2-enoyl)piperazin-1-yl]-8-fluoro-7-(3-hydroxynaphthalen-1-yl)quinazolin-2-yl}oxy)ethyl]piperidin-4-yl}oxy)ethoxy]acetamido}-3,3-dimethylbutanoyl]-4-hydroxy-N-[(1S)-1-[4-(4-methyl-1,3-thiazol-5-yl)phenyl]ethyl]pyrrolidine-2-carboxamide] | > 70% |  | > 70% |  | 100 to 1000 nM | Dmax [1, 7]: 35 to 70%; Dmax [2, 9]: 35 to 70%
